Read-outs that look alike come from different tables or passages of the source.
Test: Phase 1/2 clinical study, plasma pharmacokinetic evaluation
Type: in vivo, human
Conditions: human, plasma, oral
Procedure: In the present test of the present compound, PK samples have been collected in up to 24 patients dosed in dose groups of 40, 80, 100, and 120 mg BID Arm A, and in dose groups of 40 and 60 mg BID Arm B (Table 6). Large preliminary PK inter-patient variability was observed.
(1) In the present study, PK samples have been collected in up to 42 patients dosed in dose groups of 40, 80, 100, 120, 140 and 200 mg BID Arm A, and in dose groups of 40, 60, 100, and 200 mg BID Arm B (Table 15).
(2) In the present study, PK samples have been collected in patients dosed in dose groups of 40, 80, 100, 120, 140, 200, and 300 mg BID Arm A, and in dose groups of 40, 60, 100, 200, and 300 mg BID Arm B (Table 16).

[1] = 100 mg, 100 mg BID Arm A, C2D1, N=1
[2] = 100 mg, 100 mg BID Arm B, Cycle 1 Day 1, N=4, mean
[3] = 100 mg, 100 mg BID Arm B, Cycle 2 Day 1, N=4, mean
[4] = 100 mg, Cycle 1 Day 1, 100 mg BID Arm A (without azole), N=2, mean
[5] = 100 mg, Cycle 1 Day 1, 100 mg BID Arm B (with azole), N=4, mean
[6] = 100 mg, Cycle 2 Day 1, 100 mg BID Arm A (without azole), N=1
[7] = 100 mg, Cycle 2 Day 1, 100 mg BID Arm B (with azole), N=4, mean
[8] = 100 mg, Table 15 cut-off, 100 mg BID Arm A, Cycle 1 Day 1, N=2, mean
[9] = 100 mg, Table 15 cut-off, 100 mg BID Arm A, Cycle 2 Day 1, N=1
[10] = 120 mg, 120 mg BID Arm A, C1D1, N=6, mean
[11] = 120 mg, 120 mg BID Arm A, C2D1, N=6, mean
[12] = 120 mg, Cycle 1 Day 1, 120 mg BID Arm A (without azole), N=6, mean
[13] = 120 mg, Cycle 2 Day 1, 120 mg BID Arm A (without azole), N=6, mean
[14] = 120 mg, Table 15 cut-off, 120 mg BID Arm A, Cycle 1 Day 1, N=6, mean
[15] = 120 mg, Table 15 cut-off, 120 mg BID Arm A, Cycle 2 Day 1, N=6, mean
[16] = 140 mg, 140 mg BID Arm A, Cycle 1 Day 1, N=6 (incl. two patients with MDS), mean
[17] = 140 mg, 140 mg BID Arm A, Cycle 2 Day 1, N=5 (incl. two patients with MDS), mean
[18] = 140 mg, Cycle 1 Day 1, 140 mg BID Arm A (without azole), N=6 (two MDS patients included, one pt excluded), mean
[19] = 140 mg, Cycle 2 Day 1, 140 mg BID Arm A (without azole), N=5 (two MDS patients included, one pt excluded), mean
[20] = 140 mg, Cycle 2 Day 1, 140 mg BID Arm B (with azole), N=1
[21] = 200 mg, 200 mg BID Arm A, Cycle 1 Day 1, N=4, mean
[22] = 200 mg, 200 mg BID Arm B, Cycle 1 Day 1, N=6, mean
[23] = 200 mg, 200 mg BID Arm B, Cycle 2 Day 1, N=2, mean
[24] = 200 mg, Cycle 1 Day 1, 200 mg BID Arm A (without azole), N=5, mean
[25] = 200 mg, Cycle 1 Day 1, 200 mg BID Arm B (with azole), N=11, mean
[26] = 200 mg, Cycle 2 Day 1, 200 mg BID Arm A (without azole), N=3, mean
[27] = 200 mg, Cycle 2 Day 1, 200 mg BID Arm B (with azole), N=5 (three patients excluded), mean
[28] = 300 mg, Cycle 1 Day 1, 300 mg BID Arm A (without azole), N=4, mean
[29] = 300 mg, Cycle 1 Day 1, 300 mg BID Arm B (with azole), N=3 (one patient pending re-assay), mean
[30] = 300 mg, Cycle 2 Day 1, 300 mg BID Arm A (without azole), N=3, mean
[31] = 300 mg, Cycle 2 Day 1, 300 mg BID Arm B (with azole), N=1 (one patient pending re-assay)

SMILES: C=C1C[C@@H]2CC[C@H]1[C@@H](C(=O)N1CCC3(CC1)CN(c1ncncc1Oc1ccc(F)cc1C(=O)N(C(C)C)C(C)C)C3)N2 [the present compound, 5-fluoro-2-[(4-{7-[(1S,3S,4R)-5-methylidene-2-azabicyclo[2.2.2]octane-3-carbonyl]-2,7-diazaspiro[3.5]nonan-2-yl}pyrimidin-5-yl)oxy]-N,N-di(propan-2-yl)benzamide]
- Tmax (100 mg, 100 mg BID Arm A, C1D1, N=2, mean): 3 h
- half-life (100 mg, 100 mg BID Arm A, C1D1, N=2, mean, read-out: t1/2 (converted)): 5.64 h
- AUC(0-t) [1]: 6060 ng·h/mL
- Cmax [1]: 2840 ng/mL
- Tmax [1]: 1 h
- half-life (100 mg, 100 mg BID Arm A, C2D1, N=1, read-out: t1/2 (converted)): 2.88 h
- AUC(0-t) [2]: 5600 ng·h/mL
- Cmax [2]: 1650 ng/mL
- AUC(0-t) [3]: 8350 ng·h/mL
- Cmax [3]: 1810 ng/mL
- AUC(0-t) [4]: 4940 ng·h/mL
- Cmax [4]: 1380 ng/mL
- AUC(0-t) [5]: 5600 ng·h/mL
- Cmax [5]: 1650 ng/mL
- AUC(0-t) [6]: 6060 ng·h/mL
- Cmax [6]: 2840 ng/mL
- AUC(0-t) [7]: 8350 ng·h/mL
- Cmax [7]: 1810 ng/mL
- AUC(0-t) [8]: 4940 ng·h/mL
- Cmax [8]: 1380 ng/mL
- AUC(0-t) [9]: 6060 ng·h/mL
- Cmax [9]: 2840 ng/mL
- AUC(0-t) [10]: 6250 ng·h/mL
- Cmax [10]: 2280 ng/mL
- Tmax [10]: 1.25 h
- half-life (120 mg, 120 mg BID Arm A, C1D1, N=6, mean, read-out: t1/2 (converted)): 2.87 h
- AUC(0-t) [11]: 7860 ng·h/mL
- Cmax [11]: 1980 ng/mL
- Tmax [11]: 1.2 h
- half-life (120 mg, 120 mg BID Arm A, C2D1, N=6, mean, read-out: t1/2 (converted)): 3.26 h
- AUC(0-t) [12]: 6290 ng·h/mL
- Cmax [12]: 2320 ng/mL
- AUC(0-t) [13]: 7970 ng·h/mL
- Cmax [13]: 1980 ng/mL
- AUC(0-t) [14]: 6290 ng·h/mL
- Cmax [14]: 2320 ng/mL
- AUC(0-t) [15]: 7970 ng·h/mL
- Cmax [15]: 1980 ng/mL
- AUC(0-t) [16]: 3570 ng·h/mL
- Cmax [16]: 1480 ng/mL
- AUC(0-t) [17]: 4200 ng·h/mL
- Cmax [17]: 1670 ng/mL
- AUC(0-t) [18]: 3570 ng·h/mL
- Cmax [18]: 1480 ng/mL
- AUC(0-t) (140 mg, Cycle 1 Day 1, 140 mg BID Arm B (with azole), N=2, mean): 7000 ng·h/mL
- AUC(0-t) [19]: 4200 ng·h/mL
- Cmax [19]: 1670 ng/mL
- AUC(0-t) [20]: 5520 ng·h/mL
- Cmax [20]: 1770 ng/mL
- AUC(0-t) [21]: 9650 ng·h/mL
- Cmax [21]: 3850 ng/mL
- AUC(0-t) [22]: 21200 ng·h/mL
- Cmax [22]: 6260 ng/mL
- AUC(0-t) [23]: 16700 ng·h/mL
- Cmax [23]: 4360 ng/mL
- AUC(0-t) [24]: 12100 ng·h/mL
- Cmax [24]: 3870 ng/mL
- AUC(0-t) [25]: 21200 ng·h/mL
- Cmax [25]: 5700 ng/mL
- AUC(0-t) [26]: 12000 ng·h/mL
- Cmax [26]: 3850 ng/mL
- AUC(0-t) [27]: 16800 ng·h/mL
- Cmax [27]: 4070 ng/mL
- AUC(0-t) [28]: 15900 ng·h/mL
- Cmax [28]: 6070 ng/mL
- AUC(0-t) [29]: 26000 ng·h/mL
- Cmax [29]: 5970 ng/mL
- AUC(0-t) [30]: 12400 ng·h/mL
- Cmax [30]: 3060 ng/mL
- AUC(0-t) [31]: 20500 ng·h/mL
- Cmax [31]: 4210 ng/mL
- half-life (Arm A (without azole), FIGS. 4A to 4D cut-off, read-out: Mean t1/2): 2 to 6 h
- half-life (Arm A, 40-120 mg BID, read-out: Mean plasma t1/2): 2.82 to 5.64 h
- half-life (Arm A, 40-200 mg BID (up to 42 patients), read-out: Mean apparent half-life): 2 to 5 h
- half-life (Arm A, 40-300 mg BID, read-out: Mean apparent half-life): 2 to 4 h
- half-life (Arm B (with azole), FIGS. 4A to 4D cut-off, read-out: Mean t1/2): 3 to 7 h
- half-life (Arm B, 40-60 mg BID, read-out: Mean plasma t1/2): 2.61 to 7.29 h
- half-life (Arm B, 40-200 mg BID (up to 42 patients), read-out: Mean apparent half-life): 3 to 7 h
- half-life (Arm B, 40-300 mg BID, read-out: Mean apparent half-life): 3 to 7 h
- Tmax (post dose, Arms A and B, first cut-off): ≤ 2 h
